# From patent US12077503B2, “Substituted cyclic amides and their use as herbicides” (FMC CORPORATION, priority 2015, dated 2024)
# What was measured:
# Type in all cases: in vivo
# [1] = tested on: barnyardgrass (Echinochloa crus-galli); experiment: Test G Pre-Emergence Protocol; settings: Echinochloa crus-galli, pre-emergence, 312 h, evaluated after 13 days; for pest or weed control at 15.625 g/ha: 15.625 g ai/ha; for pest or weed control at 15.625 g/ha / pest or weed control at 250 g/ha: read-out: Barnyardgrass damage rating (100=total damage to plant; 0=no damage to plant); for pest or weed control at 62.5 g/ha: 62.5 g ai/ha, 100=total damage to plant, 0=no damage to plant, read-out: Barnyardgrass damage rating; for pest or weed control at 250 g/ha: 250 g ai/ha
# How it was run: (§1)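 Herbicidal effect was rated 13 days post-application on a scale where 100 equals total damage. Spraying took place the day after sowing, using 15.625, 62.5 or 250 g/ha of compound in a 50:50 acetone/water solution with 0.5% Tween 20.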
# [2] = tested on: velvetleaf (Abutilon theophrasti); experiment: Test G Pre-Emergence Protocol; settings: Abutilon theophrasti, pre-emergence, 312 h, evaluated after 13 days; for pest or weed control at 15.625 g/ha: 15.625 g ai/ha; for pest or weed control at 15.625 g/ha / pest or weed control at 250 g/ha: read-out: Velvetleaf damage rating (100=total damage to plant; 0=no damage to plant); for pest or weed control at 62.5 g/ha: 62.5 g ai/ha, 100=total damage to plant, 0=no damage to plant, read-out: Velvetleaf damage rating; for pest or weed control at 250 g/ha: 250 g ai/ha
# How it was run: as §1
# [3] = tested on: giant foxtail (Setaria faberi); experiment: Test G Pre-Emergence Protocol; settings: Setaria faberi, pre-emergence, 312 h, evaluated after 13 days; for pest or weed control at 15.625 g/ha: 15.625 g ai/ha; for pest or weed control at 15.625 g/ha / pest or weed control at 250 g/ha: read-out: Foxtail, Giant damage rating (100=total damage to plant; 0=no damage to plant); for pest or weed control at 62.5 g/ha: 62.5 g ai/ha, 100=total damage to plant, 0=no damage to plant, read-out: Foxtail, Giant damage rating; for pest or weed control at 250 g/ha: 250 g ai/ha
# How it was run: as §1
# [4] = tested on: ivy-leaved morning glory (Ipomoea hederacea); experiment: Test G Pre-Emergence Protocol; settings: Ipomoea, pre-emergence, 312 h, evaluated after 13 days; for pest or weed control at 15.625 g/ha: 15.625 g ai/ha; for pest or weed control at 15.625 g/ha / pest or weed control at 250 g/ha: read-out: Morningglory, Ivy-leaved damage rating (100=total damage to plant; 0=no damage to plant); for pest or weed control at 62.5 g/ha: 62.5 g ai/ha, 100=total damage to plant, 0=no damage to plant, read-out: Morningglory, Ivy-leaved damage rating; for pest or weed control at 250 g/ha: 250 g ai/ha
# How it was run: as §1
# corn (Zea mays) [5] = experiment: Test G Pre-Emergence Protocol; settings: Zea mays, pre-emergence, 312 h, evaluated after 13 days; for plant injury at 15.625 g/ha: 15.625 g ai/ha; for plant injury at 15.625 g/ha / plant injury at 250 g/ha: read-out: Corn damage rating (100=total damage to plant; 0=no damage to plant); for plant injury at 62.5 g/ha: 62.5 g ai/ha, 100=total damage to plant, 0=no damage to plant, read-out: Corn damage rating; for plant injury at 250 g/ha: 250 g ai/ha
# How it was run: as §1
# [6] = tested on: redroot pigweed (Amaranthus retroflexus); experiment: Test G Pre-Emergence Protocol; settings: Amaranthus retroflexus, pre-emergence, 312 h, evaluated after 13 days; for pest or weed control at 15.625 g/ha: 15.625 g ai/ha; for pest or weed control at 15.625 g/ha / pest or weed control at 250 g/ha: read-out: Pigweed, Redroot damage rating (100=total damage to plant; 0=no damage to plant); for pest or weed control at 62.5 g/ha: 62.5 g ai/ha, 100=total damage to plant, 0=no damage to plant, read-out: Pigweed, Redroot damage rating; for pest or weed control at 250 g/ha: 250 g ai/ha
# How it was run: as §1
# [7] = tested on: barnyardgrass (Echinochloa crus-galli); experiment: Test G Post-Emergence Protocol; settings: Echinochloa crus-galli, post-emergence, 312 h, read-out: Barnyardgrass damage rating; for pest or weed control at 15.625 g/ha: 15.625 g ai/ha, evaluated after 13 days (100=total damage to plant; 0=no damage to plant); for pest or weed control at 62.5 g/ha: 62.5 g ai/ha; for pest or weed control at 62.5 g/ha / pest or weed control at 250 g/ha: evaluated after 13 days, 100=total damage to plant, 0=no damage to plant; for pest or weed control at 250 g/ha: 250 g ai/ha
# How it was run: (§2)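 Sow in soil; grow 8 d (24/16 °C, 14 h light, 65% humidity); spray 15.625/62.5/250 g/ha in acetone:water 50:50 + 0.5% Tween 20; grow on, water twice daily; score damage 0–100 at 13 d.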
# [8] = tested on: velvetleaf (Abutilon theophrasti); experiment: Test G Post-Emergence Protocol; settings: Abutilon theophrasti, post-emergence, 312 h, read-out: Velvetleaf damage rating; for pest or weed control at 15.625 g/ha: 15.625 g ai/ha, evaluated after 13 days (100=total damage to plant; 0=no damage to plant); for pest or weed control at 62.5 g/ha: 62.5 g ai/ha; for pest or weed control at 62.5 g/ha / pest or weed control at 250 g/ha: evaluated after 13 days, 100=total damage to plant, 0=no damage to plant; for pest or weed control at 250 g/ha: 250 g ai/ha
# How it was run: as §2
# [9] = tested on: giant foxtail (Setaria faberi); experiment: Test G Post-Emergence Protocol; settings: Setaria faberi, post-emergence, 312 h, read-out: Foxtail, Giant damage rating; for pest or weed control at 15.625 g/ha: 15.625 g ai/ha, evaluated after 13 days (100=total damage to plant; 0=no damage to plant); for pest or weed control at 62.5 g/ha: 62.5 g ai/ha; for pest or weed control at 62.5 g/ha / pest or weed control at 250 g/ha: evaluated after 13 days, 100=total damage to plant, 0=no damage to plant; for pest or weed control at 250 g/ha: 250 g ai/ha
# How it was run: as §2
# [10] = tested on: ivy-leaved morning glory (Ipomoea hederacea); experiment: Test G Post-Emergence Protocol; settings: Ipomoea, post-emergence, 312 h, read-out: Morningglory, Ivy-leaved damage rating; for pest or weed control at 15.625 g/ha: 15.625 g ai/ha, evaluated after 13 days (100=total damage to plant; 0=no damage to plant); for pest or weed control at 62.5 g/ha: 62.5 g ai/ha; for pest or weed control at 62.5 g/ha / pest or weed control at 250 g/ha: evaluated after 13 days, 100=total damage to plant, 0=no damage to plant; for pest or weed control at 250 g/ha: 250 g ai/ha
# How it was run: as §2
# corn (Zea mays) [11] = experiment: Test G Post-Emergence Protocol; settings: Zea mays, post-emergence, 312 h, read-out: Corn damage rating; for plant injury at 15.625 g/ha: 15.625 g ai/ha, evaluated after 13 days (100=total damage to plant; 0=no damage to plant); for plant injury at 62.5 g/ha: 62.5 g ai/ha; for plant injury at 62.5 g/ha / plant injury at 250 g/ha: evaluated after 13 days, 100=total damage to plant, 0=no damage to plant; for plant injury at 250 g/ha: 250 g ai/ha
# How it was run: as §2
# [12] = tested on: redroot pigweed (Amaranthus retroflexus); experiment: Test G Post-Emergence Protocol; settings: Amaranthus retroflexus, post-emergence, 312 h, read-out: Pigweed, Redroot damage rating; for pest or weed control at 15.625 g/ha: 15.625 g ai/ha, evaluated after 13 days (100=total damage to plant; 0=no damage to plant); for pest or weed control at 62.5 g/ha: 62.5 g ai/ha; for pest or weed control at 62.5 g/ha / pest or weed control at 250 g/ha: evaluated after 13 days, 100=total damage to plant, 0=no damage to plant; for pest or weed control at 250 g/ha: 250 g ai/ha
# How it was run: as §2
Structure (SMILES),pest or weed control at 15.625 g/ha [1] [%],pest or weed control at 62.5 g/ha [1] [%],pest or weed control at 250 g/ha [1] [%],pest or weed control at 15.625 g/ha [2] [%],pest or weed control at 62.5 g/ha [2] [%],pest or weed control at 250 g/ha [2] [%],pest or weed control at 15.625 g/ha [3] [%],pest or weed control at 62.5 g/ha [3] [%],pest or weed control at 250 g/ha [3] [%],pest or weed control at 15.625 g/ha [4] [%],pest or weed control at 62.5 g/ha [4] [%],pest or weed control at 250 g/ha [4] [%],plant injury at 15.625 g/ha (corn (Zea mays) [5]) [%],plant injury at 62.5 g/ha (corn (Zea mays) [5]) [%],plant injury at 250 g/ha (corn (Zea mays) [5]) [%],pest or weed control at 15.625 g/ha [6] [%],pest or weed control at 62.5 g/ha [6] [%],pest or weed control at 250 g/ha [6] [%],pest or weed control at 15.625 g/ha [7] [%],pest or weed control at 62.5 g/ha [7] [%],also measured
CCc1cc([C@@H]2CN(C)C(=O)[C@H]2C(=O)Nc2cccc(F)c2C)ccc1Cl (racemic) [Compound 1804],0,80,90,0,10,30,50,90,90,0,0,10,0,0,60,0,20,30,0,50,pest or weed control at 250 g/ha [7]: 60%; pest or weed control at 15.625 g/ha [8]: 0%; pest or weed control at 62.5 g/ha [8]: 10%; pest or weed control at 250 g/ha [8]: 10%; pest or weed control at 15.625 g/ha [9]: 0%; pest or weed control at 62.5 g/ha [9]: 70%; pest or weed control at 250 g/ha [9]: 80%; pest or weed control at 15.625 g/ha [10]: 0%; pest or weed control at 62.5 g/ha [10]: 50%; pest or weed control at 250 g/ha [10]: 60%; plant injury at 15.625 g/ha (corn (Zea mays) [11]): 0%; plant injury at 62.5 g/ha (corn (Zea mays) [11]): 0%; plant injury at 250 g/ha (corn (Zea mays) [11]): 70%; pest or weed control at 15.625 g/ha [12]: 0%; pest or weed control at 62.5 g/ha [12]: 0%; pest or weed control at 250 g/ha [12]: 10%
CN1C[C@H](c2ccc(C(F)(F)F)cc2)[C@@H](C(=O)Nc2cncnc2Cl)C1=O (racemic) [Compound 1748],0,0,0,0,0,0,0,0,0,0,0,0,0,0,0,0,0,0,0,0,pest or weed control at 250 g/ha [7]: 0%; pest or weed control at 15.625 g/ha [8]: 0%; pest or weed control at 62.5 g/ha [8]: 0%; pest or weed control at 250 g/ha [8]: 0%; pest or weed control at 15.625 g/ha [9]: 0%; pest or weed control at 62.5 g/ha [9]: 0%; pest or weed control at 250 g/ha [9]: 0%; pest or weed control at 15.625 g/ha [10]: 0%; pest or weed control at 62.5 g/ha [10]: 0%; pest or weed control at 250 g/ha [10]: 0%; plant injury at 15.625 g/ha (corn (Zea mays) [11]): 0%; plant injury at 62.5 g/ha (corn (Zea mays) [11]): 0%; plant injury at 250 g/ha (corn (Zea mays) [11]): 0%; pest or weed control at 15.625 g/ha [12]: 0%; pest or weed control at 62.5 g/ha [12]: 0%; pest or weed control at 250 g/ha [12]: 0%
CN1C[C@@H](c2cccc(I)c2)[C@H](C(=O)Nc2cccc(F)c2F)C1=O (racemic) [Compound 1754],60,80,90,10,0,30,80,90,90,0,0,10,0,0,80,10,20,60,30,70,pest or weed control at 250 g/ha [7]: 80%; pest or weed control at 15.625 g/ha [8]: 10%; pest or weed control at 62.5 g/ha [8]: 30%; pest or weed control at 250 g/ha [8]: 60%; pest or weed control at 15.625 g/ha [9]: 60%; pest or weed control at 62.5 g/ha [9]: 80%; pest or weed control at 15.625 g/ha [10]: 30%; pest or weed control at 62.5 g/ha [10]: 70%; pest or weed control at 250 g/ha [10]: 70%; plant injury at 15.625 g/ha (corn (Zea mays) [11]): 10%; plant injury at 62.5 g/ha (corn (Zea mays) [11]): 60%; plant injury at 250 g/ha (corn (Zea mays) [11]): 70%; pest or weed control at 15.625 g/ha [12]: 0%; pest or weed control at 62.5 g/ha [12]: 40%; pest or weed control at 250 g/ha [12]: 70%
